These are literature values, as cited in patent publication US5116619A, “Vaginal progesterone tablet” (priority 1988, dated 1992).

SMILES strings stand for the structures.

Turning to `CC(=O)[C@H]1CC[C@H]2[C@@H]3CCC4=CC(=O)CC[C@]4(C)[C@H]3CC[C@]12C` [progesterone, pregn-4-ene-3,20-dione], the plasma half-life result (endogenous progesterone) was “a few minutes”. In addition, the “administered radiolabeled progesterone in feces” value (feces) is listed as “about 10%”. Also, under “in vivo, po”, the “serum levels after oral administration” value is on record as “significant but highly variable serum levels”. Besides, where the note is “intravenous injections”, the first half-life is 5 to 6 min and the second half-life was 42 to 45 min. Moreover, the “local tolerability of deep intramuscular injections” value (parenteral, site of injection) is “often very painful and irritating at the site of injection”. Moreover, for the setting “rectal, Steege et al.”, the “absorption by the rectal route” value is listed as “highly variable”. In addition, the “time in which all exogenous progesterone is metabolized” value (suggested by Myers et al.) was no more than 24 h. Moreover, the “administered radiolabeled progesterone in urine” value (urine) was 50 to 60%.
